Reference: patent US20260242391A1 (priority 2023, published 2026)
pEC50, pIC50: −log10 of the molar value.

Assays:
[1] = system: HL-60; assay: HL-60 differentiation potency; format: cell-based; settings: Homo sapiens
[2] = in vitro; settings: human

Row | SMILES | pEC50 [1] | pIC50 [2]
1 | C[C@H]1[C@@H](Oc2ccc(C(=O)N3[C@H](C(=O)O)C[C@@H]4C[C@@H]43)cc2)O[C@@H]2O[C@@]3(C)CC[C@H]4[C@H](C)CC[C@@H]1[C@@]24OO3 [Compound 258, (1S,3S,5S)-2-(4-(((3R,5aS,6R,8aS, 9R,10S,12R, 12aR)-3,6,9-trimethyldeca-hydro-12H-3,12-epoxy[1,2]dioxepino[4,3-i]isochromen-10-yl)oxy)benzoyl)-2-azabicyclo [3.1.0]hexane-3-carboxylic acid] | < 4.70 | < 4.70
2 | C[C@H]1[C@@H](Oc2ccc(OC3CCC(C(=O)O)C3)cc2)O[C@@H]2O[C@@]3(C)CC[C@H]4[C@H](C)CC[C@@H]1[C@@]24OO3 (stereo partly drawn) [Compound 227, 3-(4-(((3R,5aS,6R,8aS, 9R,10S,12R, 12aR)-3,6,9-trimethyldeca-hydro-12H-3,12-epoxy[1,2]dioxepino[4,3-i]isochromen-10-yl)oxy)phenoxy) cyclopentane-1-carboxylic acid] | 7.48 | 6.15
3 | C[C@H]1[C@@H](Oc2ccc(C(=O)N[C@@H](CC3CCC3)C(=O)O)cc2)O[C@@H]2O[C@@]3(C)CC[C@H]4[C@H](C)CC[C@@H]1[C@@]24OO3 [Compound 205, (S)-3-cyclobutyl-2-(4-(((3R,5aS,6R,8aS, 9R,10S,12R, 12aR)-3,6,9-trimethyldeca-hydro-12H-3,12-epoxy[1,2]dioxepino[4,3-i]isochromen-10-yl)oxy)benzamido) propanoic acid] | 7.45 | 6.96
4 | C[C@@H]1CC[C@H]2[C@@H](C)C(OCc3ccc(C(=O)O)cc3C(F)(F)F)O[C@@H]3O[C@@]4(C)CC[C@@H]1[C@]32OO4 (stereo partly drawn) [Compound 197, 3-(trifluoromethyl)-4-((((3R,5aS,6R,8aS, 9R,12R, 12aR)-3,6,9-trimethyldeca-hydro-12H-3,12-epoxy[1,2]dioxepino[4,3-i]isochromen-10-yl)oxy)methyl) benzoic acid] | 7.18 | 5.27
5 | C[C@H]1[C@@H](Oc2ccc(C(=O)O)cc2Cl)O[C@@H]2O[C@@]3(C)CC[C@H]4[C@H](C)CC[C@@H]1[C@@]24OO3 [Compound 235, 3-chloro-4-(((3R,5aS,6R,8aS, 9R,10S,12R, 12aR)-3,6,9-trimethyldeca-hydro-12H-3,12-epoxy[1,2]dioxepino[4,3-i]isochromen-10-yl)oxy)benzoic acid] | 7.43 | 4.82
6 | C[C@H]1[C@@H](OCC2CCC(C(=O)O)O2)O[C@@H]2O[C@@]3(C)CC[C@H]4[C@H](C)CC[C@@H]1[C@@]24OO3 (stereo partly drawn) [Compound 209, 5-((((3R,5aS,6R,8aS, 9R,10S,12R, 12aR)-3,6,9-trimethyldeca-hydro-12H-3,12-epoxy[1,2]dioxepino[4,3-i]isochromen-10-yl)oxy)methyl) tetrahydrofuran-2-carboxylic acid] | 4.80 | < 4.70
7 | C[C@H]1[C@@H](OCc2c(Cl)cc(C(=O)O)cc2S(C)(=O)=O)O[C@@H]2O[C@@]3(C)CC[C@H]4[C@H](C)CC[C@@H]1[C@@]24OO3 [Compound 216, 3-chloro-5-(methylsulfonyl)-4-((((3R,5aS,6R,8aS, 9R,10S,12R, 12aR)-3,6,9-trimethyldeca-hydro-12H-3,12-epoxy[1,2]dioxepino[4,3-i]isochromen-10-yl)oxy)methyl) benzoic acid] | 5.14 | < 4.70
8 | CO[C@]1(CO[C@H]2O[C@@H]3O[C@@]4(C)CC[C@H]5[C@H](C)CC[C@@H]([C@H]2C)[C@@]35OO4)CC[C@@H](C(=O)O)CC1 [Compound 199, (1S,4r)-4-methoxy-4-((((3R,5aS,6R,8aS, 9R,10S,12R, 12aR)-3,6,9-trimethyldeca-hydro-12H-3,12-epoxy[1,2]dioxepino[4,3-i]isochromen-10-yl)oxy)methyl) cyclohexane-1-carboxylic acid] | 5.19 | < 4.70
9 | C[C@H]1[C@@H](OCC(=O)N2C[C@@H]3CCC[C@@H]3[C@H]2C(=O)O)O[C@@H]2O[C@@]3(C)CC[C@H]4[C@H](C)CC[C@@H]1[C@@]24OO3 [Compound 191, (1S,3aR,6aS)-2-(2-(((3R,5aS,6R, 8aS,9R,10S,12R, 12aR)-3,6,9-trimethyldeca-hydro-12H-3,12-epoxy[1,2]dioxepino[4,3-i]isochromen-10-yl)oxy)acetyl) octahydrocyclo-penta[c]pyrrole-1-carboxlic acid] | 5.01 | < 4.70
10 | C[C@H]1[C@@H](OCc2ccc(OCC(=O)O)cc2Cl)O[C@@H]2O[C@@]3(C)CC[C@H]4[C@H](C)CC[C@@H]1[C@@]24OO3 [Compound 223, 2-(3-chloro-4-((((3R,5aS,6R,8aS, 9R,10S,12R, 12aR)-3,6,9-trimethyldeca-hydro-12H-3,12-epoxy[1,2]dioxepino[4,3-i]isochromen-10-yl)oxy)methyl)phenoxy)acetic acid] | 6.95 | 5.55
11 | C[C@H]1[C@@H](OC[C@H]2CC[C@@H](C(=O)N[C@@H](CC(F)(F)F)C(=O)O)CC2)O[C@@H]2O[C@@]3(C)CC[C@H]4[C@H](C)CC[C@@H]1[C@@]24OO3 [Compound 256, (S)-4,4,4-trifluro-2-((1R,4R)-4-((((3R,5aS,6R,8aS, 9R,10S,12R, 12aR)-3,6,9-trimethyldeca-hydro-12H-3,12-epoxy[1,2]dioxepino[4,3-i]isochromen-10-yl)oxy)methyl)cyclohexane-1-carboxamido) butanoic acid] | 5.51 | 4.82
12 | C[C@H]1[C@@H](OC[C@H]2CC[C@@H](C(=O)N[C@H]3C[C@@H](C(=O)O)C3)CC2)O[C@@H]2O[C@@]3(C)CC[C@H]4[C@H](C)CC[C@@H]1[C@@]24OO3 [Compound 241, (1S,3s)-3-((1R,4S)-4-((((3R,5aS,6R,8aS, 9R,10S,12R, 12aR)-3,6,9-trimethyldeca-hydro-12H-3,12-epoxy[1,2]dioxepino[4,3-i]isochromen-10-yl)oxy)methyl)cyclohexane-1-carboxamido) cyclobutane-1-carboxylic acid] | 6.67 | 4.73

The next lines start with the values.

Row | pEC50 [1] | pIC50 [2] | SMILES
13 | 6.43 | 4.77 | C[C@H]1[C@@H](OC[C@H]2CC[C@@H](C(=O)N3CC[C@@H](C(=O)O)C3)CC2)O[C@@H]2O[C@@]3(C)CC[C@H]4[C@H](C)CC[C@@H]1[C@@]24OO3 [Compound 263, (R)-1-((1R,4S)-4-((((3R,5aS,6R,8aS, 9R,10S,12R, 12aR)-3,6,9-trimethyldeca-hydro-12H-3,12-epoxy[1,2]dioxepino[4,3-i]isochromen-10-yl)oxy)methyl)cyclohexane-1-carbonyl) pyrrolidine-3-carboxylic acid]
14 | 6.37 | < 4.70 | C[C@H]1[C@H](OCC23[C@H]4[C@H]5[C@@H]2[C@H]2[C@@H]3[C@@H]4C52C(=O)O)O[C@@H]2O[C@@]3(C)CC[C@H]4[C@H](C)CC[C@@H]1[C@@]24OO3 (stereo partly drawn) [Compound 260, (2R,3R,5R,6R,7R, 8R)-4-((((3R,5aS,6R,8aS, 9R,10R,12R, 12aR)-3,6,9-trimethyldeca-hydro-12H-3,12-epoxy[1,2]dioxepino[4,3-i]isochromen-10-yl)oxy)methyl) cubane-1-carboxylic acid]
15 | 5.19 | 4.77 | C[C@H]1[C@@H](Oc2ccc(C(=O)NC3(C(=O)O)COC3)cc2Cl)O[C@@H]2O[C@@]3(C)CC[C@H]4[C@H](C)CC[C@@H]1[C@@]24OO3 [Compound 265, 3-(3-chloro-4-(((3R,5aS,6R,8aS, 9R,10S,12R, 12aR)-3,6,9-trimethyldeca-hydro-12H-3,12-epoxy[1,2]dioxepino[4,3-i]isochromen-10-yl)oxy)benzamido) oxetane-3-carboxylic acid]
16 | 5.54 | 4.71 | C[C@H]1[C@@H](OCc2ccc(C(=O)NC34CC(C(=O)O)(C3)C4)cc2)O[C@@H]2O[C@@]3(C)CC[C@H]4[C@H](C)CC[C@@H]1[C@@]24OO3 [Compound 273, 3-(4-((((3R,5aS,6R,8aS, 9R,10S,12R, 12aR)-3,6,9-trimethyldeca-hydro-12H-3,12-epoxy[1,2]dioxepino[4,3-i]isochromen-10-yl)oxy)methyl)benzamido) bicyclo[1.1.1] pentane-1-carboxylic acid]
17 | 7.50 | 5.76 | C[C@H]1[C@@H](OCc2c(F)cc(C(=O)N[C@H]3CC[C@@H](C(=O)O)C3)cc2F)O[C@@H]2O[C@@]3(C)CC[C@H]4[C@H](C)CC[C@@H]1[C@@]24OO3 [Compound 309, (1R,3S)-3-(3,5-difluoro-4-((((3R,5aS,6R,8aS, 9R,10S,12R, 12aR)-3,6,9-trimethyldeca-hydro-12H-3,12-epoxy[1,2]dioxepino[4,3-i]isochromen-10-yl)oxy)methyl)benzamido) cyclopentane-1-carboxylic acid]
18 | > 8.00 | 6.44 | CC(C)[C@H](Oc1ccc(O[C@H]2O[C@@H]3O[C@@]4(C)CC[C@H]5[C@H](C)CC[C@@H]([C@H]2C)[C@@]35OO4)cc1)C(=O)O [Compound 261, (S)-3-methyl-2-(4-(((3R,5aS,6R,8aS, 9R,10S,12R, 12aR)-3,6,9-trimethyldeca-hydro-12H-3,12-epoxy[1,2]dioxepino[4,3-i]isochromen-10-yl)oxy)phenoxy) butanoic acid]
19 | 7.54 | 6.15 | C[C@H]1[C@@H](Oc2ccc(C(C)(C)C(=O)O)cc2F)O[C@@H]2O[C@@]3(C)CC[C@H]4[C@H](C)CC[C@@H]1[C@@]24OO3 [Compound 270, 2-(3-fluoro-4-(((3R,5aS,6R,8aS, 9R,10S,12R, 12aR)-3,6,9-trimethyldeca-hydro-12H-3,12-epoxy[1,2]dioxepino[4,3-i]isochromen-10-yl)oxy)phenyl)-2-methyl-propanoic acid]
20 | 7.74 | 5.82 | C[C@H]1[C@@H](OCc2ccc(C(=O)NCC3(C(=O)O)CCC3)cc2)O[C@@H]2O[C@@]3(C)CC[C@H]4[C@H](C)CC[C@@H]1[C@@]24OO3 [Compound 286, 1-((4-((((3R,5aS,6R,8aS, 9R,10S,12R, 12aR)-3,6,9-trimethyldeca-hydro-12H-3,12-epoxy[1,2]dioxepino[4,3-i]isochromen-10-yl)oxy)methyl)benzamido)methyl) cyclobutane-1-carboxylic acid]
